Laboratory results as given in patent publication US10294202B2, “Pyrrolidinones as herbicides” (FMC Corporation, priority 2013, dated 2019).

Key:
barnyardgrass = test: Test A pre-/postemergence herbicide test; format: in vivo, Echinochloa crus-galli
Method in brief: (§1)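 Seeds sown in loam soil/sand blend received a preemergence directed soil spray of test chemical in non-phytotoxic solvent with surfactant; postemergence plants (2–10 cm, one- to two-leaf stage) were sprayed with the same formulation. After about 10 days in greenhouse, injury was rated visually versus untreated controls, 0 (no effect) to 100 (complete control).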

kochia = test: Test A pre-/postemergence herbicide test; format: in vivo, Kochia scoparia; conditions: for Plant response rating, Kochia: 0 to 100 scale
Description: (§2) Seeds of plant species selected from bamyardgrass (Echinochloa crus-galli), kochia (Kochia scoparia), ragweed (common ragweed, Ambrosia elatior), ryegrass, Italian (Italian ryegrass, Lolium multiflorum), crabgrass, large (large crabgrass Digitaria sanguinalis), giant foxtail (Setaria faberii), morningglory (Ipomoea spp.), pigweed (Amaranthus retroflexus), velvetleaf (Abutilon theophrasti), wheat (Triticum aestivum), and corn (Zea mays) were planted into a blend of loam soil and sand and treated preemergence with a directed soil spray using test chemicals formulated in a non-phytotoxic solvent mixture which included a surfactant. At the same time, plants selected from these crop and weed species and also blackgrass (Alopecurus myosuroides), and galium (catchweed bedstraw, Galium aparine) were planted in pots containing the same blend of loam soil and sand and treated with postemergence applications of test chemicals formulated in the same manner. Plants ranged in height from 2 to 10 cm and were in the one- to two-leaf stage for the postemergence treatment. Treated plants and untreated controls were maintained in a greenhouse for approximately 10 days, after which time all treated plants were compared to untreated controls and visually evaluated for injury. Plant response ratings, summarized in Table A, are based on a 0 to 100 scale where 0 is no effect and 100 is complete control. A dash (-) response means no test result.

ragweed = test: Test A pre-/postemergence herbicide test; format: in vivo, Ambrosia elatior; conditions: for Plant response rating, Ragweed: 0 to 100 scale
Description: as §2

ryegrass, Italian = test: Test A pre-/postemergence herbicide test; format: in vivo, Lolium multiflorum; conditions: for Plant response rating, Ryegrass, Italian: 0 to 100 scale
Description: as §2

giant foxtail = test: Test A pre-/postemergence herbicide test; format: in vivo, Setaria faberii
Method in brief: as §1

pigweed = test: Test A pre-/postemergence herbicide test; format: in vivo, Amaranthus retroflexus
Description: as §2

wheat = test: Test A pre-/postemergence herbicide test; format: in vivo, Triticum aestivum
Method in brief: as §1

corn = test: Test A pre-/postemergence herbicide test; format: in vivo, Zea mays
Method in brief: as §1

blackgrass = test: Test A postemergence herbicide test; format: in vivo, Alopecurus myosuroides
Description: (§3) At the same time, plants selected from these crop and weed species and also blackgrass (Alopecurus myosuroides), and galium (catchweed bedstraw, Galium aparine) were planted in pots containing the same blend of loam soil and sand and treated with postemergence applications of test chemicals formulated in the same manner. Plants ranged in height from 2 to 10 cm and were in the one- to two-leaf stage for the postemergence treatment. Treated plants and untreated controls were maintained in a greenhouse for approximately 10 days, after which time all treated plants were compared to untreated controls and visually evaluated for injury. Plant response ratings, summarized in Table A, are based on a 0 to 100 scale where 0 is no effect and 100 is complete control. A dash (-) response means no test result.

galium = test: Test A postemergence herbicide test; format: in vivo, Galium aparine
Description: as §3

crabgrass, large = test: Test A pre-/postemergence herbicide test; format: in vivo, Digitaria sanguinalis
Method in brief: as §1

morningglory = test: Test A pre-/postemergence herbicide test; format: in vivo, Ipomoea spp.
Description: as §2

velvetleaf = test: Test A pre-/postemergence herbicide test; format: in vivo, Abutilon theophrasti
Description: as §2

[1] = 125 g ai/ha, visual rating, 0 to 100 scale, 0 no effect, 100 complete control, approximately 10 days, preemergence
[2] = Postemergence, 125 g ai/ha, 0 to 100 scale, 0 is no effect, 100 is complete control
[3] = preemergence, 500 g ai/ha, 0 to 100 scale, 0 is no effect and 100 is complete control
[4] = 125 g ai/ha, visual rating, 0 no effect, 100 complete control, approximately 10 days, preemergence
[5] = Postemergence, 125 g ai/ha, 0 is no effect, 100 is complete control
[6] = preemergence, 500 g ai/ha, 0 is no effect and 100 is complete control
[7] = 125 g ai/ha, 0 to 100 scale, 0 is no effect, 100 is complete control
[8] = Postemergence, 125 g ai/ha, 0 to 100 scale, 0 no effect, 100 complete control
[9] = Postemergence, 500 g ai/ha, 0 to 100 scale (0 no effect, 100 complete control)
[10] = Preemergence, 125 g ai/ha, visual rating on 0 to 100 scale (0 no effect, 100 complete control)
[11] = preemergence, 500 g ai/ha, 0 to 100 scale (0 no effect, 100 complete control)
[12] = preemergence, 500 g ai/ha, 0 to 100 scale
[13] = Postemergence, 1000 g ai/ha, 0 to 100 scale (0 no effect, 100 complete control)
[14] = Preemergence, 1000 g ai/ha, visual rating on 0 to 100 scale (0 no effect, 100 complete control), approx. 10 days

COc1ccc(NC(=O)C2C(=O)NCC2c2cccc(C(F)(F)F)c2)cc1F (racemic) [Compound 188]
Plant response rating, Barnyardgrass (barnyardgrass; [1]): 0
Plant response rating, Barnyardgrass (barnyardgrass; [2]): 0
Barnyardgrass plant response rating (0 to 100 scale, 0 is no effect, 100 is complete control) (barnyardgrass; Postemergence, 500 g ai/ha): 0
Plant response rating, Barnyardgrass (barnyardgrass; [3]): 0
Plant response rating, Kochia (kochia; [4]): 0
Plant response rating, Kochia (kochia; [5]): 0
Kochia plant response rating (0 to 100 scale, 0 is no effect, 100 is complete control) (kochia; Postemergence, 500 g ai/ha): 0
Plant response rating, Kochia (kochia; [6]): 0
Plant response rating, Ragweed (ragweed; [4]): 0
Plant response rating, Ragweed (ragweed; [5]): 0
Ragweed plant response rating (0 to 100 scale, 0 is no effect, 100 is complete control) (ragweed; Postemergence, 500 g ai/ha): 0
Plant response rating, Ragweed (ragweed; [6]): 0
Plant response rating, Ryegrass, Italian (ryegrass, Italian; [4]): 0
Plant response rating, Ryegrass, Italian (ryegrass, Italian; [5]): 0
Ryegrass, Italian plant response rating (0 to 100 scale, 0 is no effect, 100 is complete control) (ryegrass, Italian; Postemergence, 500 g ai/ha): 0
Plant response rating, Ryegrass, Italian (ryegrass, Italian; [6]): 0
Plant response rating, Foxtail, Giant (giant foxtail; [1]): 0
Plant response rating, Foxtail, Giant (giant foxtail; [2]): 0
Foxtail, Giant plant response rating (0 to 100 scale, 0 is no effect, 100 is complete control) (giant foxtail; Postemergence, 500 g ai/ha): 0
Plant response rating, Foxtail, Giant (giant foxtail; [3]): 0
Plant response rating, Pigweed (pigweed; [1]): 0
Plant response rating, Pigweed (pigweed; [2]): 0
Pigweed plant response rating (0 to 100 scale, 0 is no effect, 100 is complete control) (pigweed; Postemergence, 500 g ai/ha): 0
Plant response rating, Pigweed (pigweed; [3]): 0
Plant response rating, Wheat (wheat; [2]): 0
Wheat plant response rating (0 to 100 scale, 0 is no effect, 100 is complete control) (wheat; Postemergence, 500 g ai/ha): 0
Plant response rating, Corn (corn; [2]): 0
Corn plant response rating (0 to 100 scale, 0 is no effect, 100 is complete control) (corn; Postemergence, 500 g ai/ha): 0
Plant response rating, Blackgrass (blackgrass; [7]): 0
Blackgrass plant response rating (0 to 100 scale, 0 is no effect, 100 is complete control) (blackgrass; 500 g ai/ha): 0
Plant response rating, Galium (galium; [7]): 0
Galium plant response rating (0 to 100 scale, 0 is no effect, 100 is complete control) (galium; 500 g ai/ha): 0

CC1NC(=O)C(C(=O)Nc2ccccc2C(F)(F)F)C1c1ccc(F)c(F)c1 (mixture of isomers) [Compound 9]
Plant response rating, Barnyardgrass (barnyardgrass; [8]): 30
Plant response rating, Barnyardgrass (barnyardgrass; [9]): 50
Barnyardgrass plant response rating (barnyardgrass; [10]): 20
Plant response rating, Barnyardgrass (barnyardgrass; [11]): 60
Plant response rating, Crabgrass, Large (crabgrass, large; [8]): 40
Plant response rating, Crabgrass, Large (crabgrass, large; [9]): 70
Crabgrass, Large plant response rating (crabgrass, large; [10]): 80
Plant response rating, Crabgrass, Large (crabgrass, large; [12]): 90
Plant response rating, Foxtail, Giant (giant foxtail; [8]): 0
Plant response rating, Foxtail, Giant (giant foxtail; [9]): 70
Foxtail, Giant plant response rating (giant foxtail; [10]): 70
Plant response rating, Foxtail, Giant (giant foxtail; [12]): 90
Plant response rating, Morningglory (morningglory; [8]): 0
Plant response rating, Morningglory (morningglory; [9]): 0
Morningglory plant response rating (morningglory; [10]): 0
Plant response rating, Morningglory (morningglory; [12]): 0
Plant response rating, Pigweed (pigweed; [8]): 0
Plant response rating, Pigweed (pigweed; [9]): 0
Pigweed plant response rating (pigweed; [10]): 0
Plant response rating, Pigweed (pigweed; [12]): 0
Plant response rating, Velvetleaf (velvetleaf; [8]): 0
Plant response rating, Velvetleaf (velvetleaf; [9]): 0
Velvetleaf plant response rating (velvetleaf; [10]): 0
Plant response rating, Velvetleaf (velvetleaf; [12]): 0
Plant response rating, Wheat (wheat; [8]): 0
Plant response rating, Wheat (wheat; [9]): 0
Wheat plant response rating (wheat; [10]): 0
Plant response rating, Wheat (wheat; [12]): 0
Plant response rating, Corn (corn; [8]): 0
Plant response rating, Corn (corn; [9]): 0
Corn plant response rating (corn; [10]): 0
Plant response rating, Corn (corn; [12]): 0

O=C1NCC(c2cc(Cl)cc(Cl)c2)C1C(=O)Nc1ccccc1F (racemic) [Compounds 90]
Plant response rating, Barnyardgrass (barnyardgrass; [8]): 30
Plant response rating, Barnyardgrass (barnyardgrass; [9]): 70
Barnyardgrass plant response rating (barnyardgrass; [10]): 30
Plant response rating, Barnyardgrass (barnyardgrass; [11]): 70
Plant response rating, Crabgrass, Large (crabgrass, large; [8]): 50
Plant response rating, Crabgrass, Large (crabgrass, large; [9]): 70
Crabgrass, Large plant response rating (crabgrass, large; [10]): 70
Plant response rating, Crabgrass, Large (crabgrass, large; [12]): 80
Plant response rating, Foxtail, Giant (giant foxtail; [8]): 40
Plant response rating, Foxtail, Giant (giant foxtail; [9]): 70
Foxtail, Giant plant response rating (giant foxtail; [10]): 60
Plant response rating, Foxtail, Giant (giant foxtail; [12]): 70
Plant response rating, Morningglory (morningglory; [8]): 0
Plant response rating, Morningglory (morningglory; [9]): 0
Morningglory plant response rating (morningglory; [10]): 0
Plant response rating, Morningglory (morningglory; [12]): 0
Plant response rating, Pigweed (pigweed; [8]): 0
Plant response rating, Pigweed (pigweed; [9]): 20
Pigweed plant response rating (pigweed; [10]): 0
Plant response rating, Pigweed (pigweed; [12]): 0
Plant response rating, Velvetleaf (velvetleaf; [8]): 0
Plant response rating, Velvetleaf (velvetleaf; [9]): 0
Velvetleaf plant response rating (velvetleaf; [10]): 0
Plant response rating, Velvetleaf (velvetleaf; [12]): 0
Plant response rating, Wheat (wheat; [8]): 0
Plant response rating, Wheat (wheat; [9]): 0
Wheat plant response rating (wheat; [10]): 0
Plant response rating, Wheat (wheat; [12]): 0
Plant response rating, Corn (corn; [8]): 0
Plant response rating, Corn (corn; [9]): 30
Corn plant response rating (corn; [10]): 0
Plant response rating, Corn (corn; [12]): 0

O=C1NCC(c2ccc(F)c(F)c2)C1C(=O)Nc1cccc(C(F)(F)F)c1 (racemic) [Compound 13]
Plant response rating, Barnyardgrass (barnyardgrass; [8]): 0
Plant response rating, Barnyardgrass (barnyardgrass; [9]): 30
Barnyardgrass plant response rating (barnyardgrass; [10]): 0
Plant response rating, Barnyardgrass (barnyardgrass; [11]): 50
Plant response rating, Crabgrass, Large (crabgrass, large; [8]): 0
Plant response rating, Crabgrass, Large (crabgrass, large; [9]): 60
Crabgrass, Large plant response rating (crabgrass, large; [10]): 50
Plant response rating, Crabgrass, Large (crabgrass, large; [12]): 80
Plant response rating, Foxtail, Giant (giant foxtail; [8]): 0
Plant response rating, Foxtail, Giant (giant foxtail; [9]): 0
Foxtail, Giant plant response rating (giant foxtail; [10]): 0
Plant response rating, Foxtail, Giant (giant foxtail; [12]): 30
Plant response rating, Morningglory (morningglory; [8]): 0
Plant response rating, Morningglory (morningglory; [9]): 0
Morningglory plant response rating (morningglory; [10]): 0
Plant response rating, Morningglory (morningglory; [12]): 0
Plant response rating, Pigweed (pigweed; [8]): 0
Plant response rating, Pigweed (pigweed; [9]): 0
Pigweed plant response rating (pigweed; [10]): 0
Plant response rating, Pigweed (pigweed; [12]): 0
Plant response rating, Velvetleaf (velvetleaf; [8]): 0
Plant response rating, Velvetleaf (velvetleaf; [9]): 0
Velvetleaf plant response rating (velvetleaf; [10]): 0
Plant response rating, Velvetleaf (velvetleaf; [12]): 0
Plant response rating, Wheat (wheat; [8]): 0
Plant response rating, Wheat (wheat; [9]): 0
Wheat plant response rating (wheat; [10]): 0
Plant response rating, Wheat (wheat; [12]): 0
Plant response rating, Corn (corn; [8]): 0
Plant response rating, Corn (corn; [9]): 0
Corn plant response rating (corn; [10]): 0
Plant response rating, Corn (corn; [12]): 0

CN(C(=O)C1C(=O)NCC1c1ccc(F)c(F)c1)c1ccccc1F (stereo not drawn) [Compound 24]
Plant response rating, Barnyardgrass (barnyardgrass; [13]): 0
Plant response rating, Barnyardgrass (barnyardgrass; [14]): 0
Plant response rating, Crabgrass, Large (crabgrass, large; [13]): 30
Plant response rating, Crabgrass, Large (crabgrass, large; [14]): 70
Plant response rating, Foxtail, Giant (giant foxtail; [13]): 0
Plant response rating, Foxtail, Giant (giant foxtail; [14]): 40
Plant response rating, Morningglory (morningglory; [13]): 0
Plant response rating, Morningglory (morningglory; [14]): 0
Plant response rating, Pigweed (pigweed; [13]): 0
Plant response rating, Pigweed (pigweed; [14]): 0
Plant response rating, Velvetleaf (velvetleaf; [13]): 0
Plant response rating, Velvetleaf (velvetleaf; [14]): 60
Plant response rating, Wheat (wheat; [13]): 0
Plant response rating, Wheat (wheat; [14]): 0
Plant response rating, Corn (corn; [13]): 0
Plant response rating, Corn (corn; [14]): 0
